Reference: ChEMBL document CHEMBL1201862, “PubChem BioAssay data set” (2004)
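Following 48 hours of exposure in 96-well plates, responses at five concentrations were used to interpolate endpoints linearly. The concentration for 50% growth inhibition is given as GI50.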 Active and inactive are the calls of the source. Cut-off read from the data, not from the text of the source: active = GI50 up to about 1.1 µM and inactive = higher.

Experiments:
Assay in all cases: growth of human tumour cells (NCI), 48 h
A549 = test system: A549
M14 = test system: M14
TK-10 = test system: TK-10
SN12C = test system: SN12C
ACHN = test system: ACHN
UACC-257 = test system: UACC-257
OVCAR-4 = test system: OVCAR-4
KM12 = test system: KM12
HOP-92 = test system: HOP-92
UACC-62 = test system: UACC-62
NCI-H460 = test system: NCI-H460
OVCAR-5 = test system: OVCAR-5
SW-620 = test system: SW-620
RXF 393 = test system: RXF 393
HOP-62 = test system: HOP-62
SK-MEL-5 = test system: SK-MEL-5
Malme-3M = test system: Malme-3M
LOX IMVI = test system: LOX IMVI
HCT-116 = test system: HCT-116
K562 = test system: K562

Row | Compound | GI50 (A549) | GI50 (M14) | GI50 (TK-10) | GI50 (SN12C) | GI50 (ACHN) | GI50 (UACC-257) | GI50 (OVCAR-4) | GI50 (KM12) | GI50 (HOP-92) | GI50 (UACC-62) | GI50 (NCI-H460) | GI50 (OVCAR-5) | GI50 (SW-620) | GI50 (RXF 393) | GI50 (HOP-62) | GI50 (SK-MEL-5) | GI50 (Malme-3M) | GI50 (LOX IMVI) | GI50 (HCT-116) | GI50 (K562)
1 | COc1ccc(-c2cs/c(=N\c3ccccc3)n2CCCN(C)C)cc1 | 17.1 µM (inactive) | 10.7 µM (inactive) | 14.2 µM (inactive) | 33.7 µM (inactive) | 21.8 µM (inactive) | 18.9 µM (inactive) | 23.3 µM (inactive) | 15 µM (inactive) | 26.3 µM (inactive) | 15.1 µM (inactive) | 23.8 µM (inactive) | 14.8 µM (inactive) | > 10 µM (inactive) | 12.2 µM (inactive) | 13.6 µM (inactive) |  |  |  |  | 
2 | CCN(CC)CCO[Si](OCCN(CC)CC)(OCCN(CC)CC)OCCN(CC)CC | > 100 µM (inactive) | > 100 µM (inactive) | > 100 µM (inactive) | > 100 µM (inactive) |  | > 100 µM (inactive) | > 100 µM (inactive) | > 100 µM (inactive) |  | > 100 µM (inactive) | > 100 µM (inactive) | > 100 µM (inactive) | > 100 µM (inactive) | > 100 µM (inactive) |  | > 100 µM (inactive) | > 100 µM (inactive) | > 100 µM (inactive) | > 10 µM (inactive) | 
3 | O=C(Nc1ccc(Cl)c(Cl)c1)C(=O)C(C(=O)c1ccccc1F)C1OC(=O)c2ccccc21 (stereo not drawn) | 27.8 µM (inactive) | 16.4 µM (inactive) | 38.8 µM (inactive) | 19.2 µM (inactive) | 31.9 µM (inactive) | 40.8 µM (inactive) | 22.3 µM (inactive) | 20 µM (inactive) | 51.6 µM (inactive) | 14.8 µM (inactive) | 18.6 µM (inactive) | 49.1 µM (inactive) | 23.9 µM (inactive) | 20.7 µM (inactive) | 23.4 µM (inactive) | 15.9 µM (inactive) |  | 18.4 µM (inactive) | 16.8 µM (inactive) | 22 µM (inactive)
4 | COc1ccc2c(c1)OC(c1ccccc1O)CC2=O (stereo not drawn) | 40.6 µM (inactive) | 39.9 µM (inactive) | > 100 µM (inactive) | 41.5 µM (inactive) | 46.2 µM (inactive) | 39.5 µM (inactive) | 47.3 µM (inactive) | 27.5 µM (inactive) |  |  | 50.1 µM (inactive) | > 100 µM (inactive) | 40.6 µM (inactive) |  | 41.4 µM (inactive) | 40 µM (inactive) | 47.3 µM (inactive) |  | 29.5 µM (inactive) | 28.3 µM (inactive)
5 | C#CCN(Cc1ccc2nc(-c3ccccc3)c(Cl)nc2c1)c1ccc(F)cc1 | > 100 µM (inactive) | > 100 µM (inactive) | > 100 µM (inactive) | > 100 µM (inactive) | 71.9 µM (inactive) | > 100 µM (inactive) | 59.8 µM (inactive) | > 100 µM (inactive) | 47 µM (inactive) | > 100 µM (inactive) | > 100 µM (inactive) | > 100 µM (inactive) | > 100 µM (inactive) |  | > 100 µM (inactive) | 23.1 µM (inactive) | > 100 µM (inactive) | > 100 µM (inactive) | > 100 µM (inactive) | 
6 | CC1CC(c2ccccc2)=Nc2ccccc2S1 (stereo not drawn) | > 100 µM (inactive) | > 100 µM (inactive) | > 100 µM (inactive) | > 100 µM (inactive) | > 100 µM (inactive) | > 100 µM (inactive) | > 100 µM (inactive) | > 100 µM (inactive) | > 100 µM (inactive) | > 100 µM (inactive) | > 100 µM (inactive) | > 100 µM (inactive) | > 100 µM (inactive) | > 100 µM (inactive) | > 100 µM (inactive) | > 100 µM (inactive) |  | 84.7 µM (inactive) | > 100 µM (inactive) | 79.4 µM (inactive)
7 | CC(O)(P(=O)(O)O)P(=O)(O)OCC(O)CN1CCOCC1 (stereo not drawn) | > 100 µM (inactive) | > 100 µM (inactive) | > 100 µM (inactive) |  | > 100 µM (inactive) | > 100 µM (inactive) |  | > 100 µM (inactive) | > 100 µM (inactive) | > 100 µM (inactive) | > 100 µM (inactive) | > 100 µM (inactive) | > 100 µM (inactive) | > 100 µM (inactive) | > 100 µM (inactive) |  | > 100 µM (inactive) | > 100 µM (inactive) | > 100 µM (inactive) | > 100 µM (inactive)
8 | CCCCCCCc1cscc1-c1cscc1Br | 27.2 µM (inactive) | 31.9 µM (inactive) | > 100 µM (inactive) | 69.5 µM (inactive) | 33.5 µM (inactive) | 31.6 µM (inactive) | 33.7 µM (inactive) | 27.2 µM (inactive) |  | 70 µM (inactive) | 39.4 µM (inactive) | 39.3 µM (inactive) | 42.8 µM (inactive) | 27 µM (inactive) | 57.4 µM (inactive) | 28.4 µM (inactive) | 42.1 µM (inactive) | 20.1 µM (inactive) | 32.7 µM (inactive) | 53.1 µM (inactive)
9 | COC(=O)N[C@H](C(=O)NC(OCc1ccccc1)C1COC(C)(C)O1)C(C)O[Si](C)(C)C(C)(C)C (stereo partly drawn) | > 100 µM (inactive) | > 100 µM (inactive) | > 100 µM (inactive) |  | > 100 µM (inactive) | 59.4 µM (inactive) | > 100 µM (inactive) |  | 70 µM (inactive) |  | 57.3 µM (inactive) | > 100 µM (inactive) | 75.3 µM (inactive) | > 100 µM (inactive) | 92.5 µM (inactive) | 26.7 µM (inactive) | > 100 µM (inactive) |  | > 100 µM (inactive) | > 100 µM (inactive)
10 | O=c1c2cc(I)ccc2nc(-c2cccs2)n1O | 22.6 µM (inactive) | 64.3 µM (inactive) | 24.6 µM (inactive) | 45 µM (inactive) | 46.3 µM (inactive) | 59 µM (inactive) | 31.6 µM (inactive) | 32.6 µM (inactive) | 28.1 µM (inactive) | 90.6 µM (inactive) | 36.6 µM (inactive) | 44.8 µM (inactive) | 37 µM (inactive) | > 100 µM (inactive) | 48.9 µM (inactive) | 45.1 µM (inactive) |  | 28.1 µM (inactive) | 38.8 µM (inactive) | 48.3 µM (inactive)
11 | S=C=NCCc1ccccc1 [PHENETHYLISOTHIOCYANATE] | 2.39 µM (inactive) | 0.46 µM (active) | 0.813 µM (active) | 0.319 µM (active) | 1.56 µM (inactive) | 0.885 µM (active) | 2.14 µM (inactive) | 0.239 µM (active) |  | 0.839 µM (active) | 0.0973 µM (active) | 1.55 µM (inactive) | 0.31 µM (active) | 0.443 µM (active) | 0.371 µM (active) | 0.325 µM (active) | 0.964 µM (active) | 0.194 µM (active) | 0.453 µM (active) | 0.226 µM (active)
